Assay results as given in patent US10683553B2, “Method for determining sensitivity to simultaneous inhibitor against PARP and Tankyrase” (THE ASAN FOUNDATION, priority 2015, dated 2020).
“Also recorded” adds a separate entry of the source.

How the values were obtained:
[1] = test system: RKO human colon cancer cell line; assay: Trypan blue staining apoptosis assay; assay type: cell-based; details: RKO (p53 WT/LIG4 MT); 25 μM and 50 μM, 48 hours
Text: (§1) In order to analyze the degree of apoptosis of Compound A, which is a novel PARP/Tankyrase simultaneous inhibitor according to a p53 genotype and LIG4 genotype, the present inventors treated a novel PARP/Tankyrase simultaneous inhibitor, Compound A, and a competitive drug PARP inhibitor, olaparib, in RKO, LoVo human colon cancer cell line in which the p53 gene is a normal type and the LIG4 gene is a mutant type and an SW620 human colon cancer cell line in which the p53 gene is a mutant type and the LIG4 gene is a normal type. The number of cells was measured by trypan blue staining assay to confirm the degree of apoptosis. The conditions and methods of the experiment were as follows: RKO, LoVo human colon cancer cell line in which the p53 gene is a normal type and the LIG4 gene is a mutant type and the SW620 human colon cancer cell line in which the p53 gene is a mutant type and the LIG4 gene is a normal type were cultured in RPMI1640 (10% FBS, 1% penicillin/streptomycin) and cultured in a 60 mm plate at 1×10^5 per well for 24 hours at 37° C. Compound A, which is a novel PARP/Tankyrase simultaneous inhibitor, and olaparib, which is a competitive drug PARP inhibitor, were treated with each of 25 μM and 50 μM and were cultured for 48 hours. The number of cells was measured by trypan blue staining assay to confirm the degree of apoptosis.
In order to analyze the degree of apoptosis of Compound A, which is a novel PARP/Tankyrase simultaneous inhibitor, according to the p53 genotype and an LIG4 genotype, the present inventors treated Compounds A and B, which are novel PARP/Tankyrase simultaneous inhibitors, in the RKO and LoVo human colon cancer cell lines in which the p53 gene is a normal type and an LIG4 gene is a mutant type. Then, the number of cells was measured by trypan blue staining assay to confirm the degree of apoptosis. The RKO and LoVo human colon cancer cell lines were cultured under the same conditions as in Example 5. Compounds A and B, which are novel PARP/Tankyrase simultaneous inhibitors, were treated with 25 μM and 50 μM, respectively, for 48 hours. After 48 hours of culturing, the number of cells was measured by trypan blue staining assay to confirm the degree of apoptosis. […]

[2] = test system: SW620 human colon cancer cell line; assay: Trypan blue staining apoptosis assay; assay type: cell-based; details: SW620 (p53 MT/LIG4 WT); 25 μM and 50 μM, 48 hours
Text: as §1
(§2) In order to analyze the degree of apoptosis of Compounds A and B, which are novel PARP/Tankyrase simultaneous inhibitors, in a cell line RKO in which the p53 genotype is a normal type and an LIG4 genotype is a mutant type, a cell line SW620 in which the p53 genotype is a mutant type and an LIG4 genotype is a normal type, a cell line HCT8 in which the p53 genotype and an LIG4 genotype are normal, and a cell line KM12C in which the p53 genotype and an LIG4 genotype are mutant, the human colon cancer cell lines of RKO, HCT, SW620 and KM12C with different p53 genotype and LIG4 genotype were cultured in RPMI1640 (10% FBS, 1% penicillin/streptomycin) and cultured in a 60 mm plate at 1×10^5 per well for 24 hours at 37° C. Compounds A and B, which are novel PARP/Tankyrase simultaneous inhibitors, and olaparib, which is a competitive drug PARP inhibitor, and NVP-TNKS656, which is a Tankyrase inhibitor, were treated with each of 25 μM and 50 μM. After 48 hours of culturing, the number of cells was measured by trypan blue staining assay to confirm the degree of apoptosis.

[3] = test system: KM12C human colon cancer cell line; assay: Xenograft tumor inhibition; assay type: in vivo, nude mouse (BALB/c-nude); details: KM12C (p53 MT/LIG4 MT) xenograft, orally 25 mpk and 50 mpk daily
Text: (§3) In order to analyze the tumor inhibition effect on Compound A, which is a novel PARP/Tankyrase simultaneous inhibitor, in an in vivo animal model when a p53 genotype and an LIG4 genotype are mutant types, the present inventors transplanted the KM12C human colon cancer cell line in which a p53 genotype and an LIG4 genotype are mutant types into a 6-week-old nude mouse (BALB/c-nude, purchased from the central experimental animal) and administered with Compound A, which is a novel PARP/Tankyrase simultaneous inhibitor, and olaparib, which is a competitive drug PARP inhibitor. Then, the size of tumor was measured to confirm the degree of tumor inhibition effect. The conditions and methods of the experiment were as follows: KM12C human colon cancer cell line in which a p53 genotype and an LIG4 genotype are mutant types was cultured in RPMI1640 (10% FBS, 1% penicillin/streptomycin). When the size of the tumor reached 100 mm^3 after being transplanted into a nude mouse per 1×10^7, Compound A, which is a novel PARP/Tankyrase simultaneous inhibitor, and olaparib, which is a competitive drug PARP inhibitor, were orally administered at 25 mpk and 50 mpk daily for a total of 18 days. The size of a tumor was measured every three days. After the completion of drug administration, the tumors were harvested and weighed.
as §3, with “on Compound B, which is” for “on Compound A, which is”, “with Compound B, which is” for “with Compound A, which is”, “PARP/Tankyrase simultaneous inhibitor. Then,” for “PARP/Tankyrase simultaneous inhibitor, and olaparib, which is a competitive drug PARP inhibitor. Then,”, “1×10^7, Compound B, which is” for “1×10^7, Compound A, which is”, “simultaneous inhibitor, was orally administered” for “simultaneous inhibitor, and olaparib, which is a competitive drug PARP inhibitor, were orally administered”, “total of 15 days. The” for “total of 18 days. The”

[4] = test system: LoVo human colon cancer cell line; assay: Trypan blue staining apoptosis assay; assay type: cell-based; details: LoVo (p53 WT/LIG4 MT); 25 μM and 50 μM, 48 hours
Text: as §1
In order to analyze the degree of apoptosis of Compound A, which is a novel PARP/Tankyrase simultaneous inhibitor, according to the p53 genotype and an LIG4 genotype, the present inventors treated Compounds A and B, which are novel PARP/Tankyrase simultaneous inhibitors, in the RKO and LoVo human colon cancer cell lines in which the p53 gene is a normal type and an LIG4 gene is a mutant type. Then, the number of cells was measured by trypan blue staining assay to confirm the degree of apoptosis. The RKO and LoVo human colon cancer cell lines were cultured under the same conditions as in Example 5. […] After 48 hours of culturing, the number of cells was measured by trypan blue staining assay to confirm the degree of apoptosis.

[5] = test system: HCT8 human colon cancer cell line; assay: Trypan blue staining apoptosis assay; assay type: cell-based; details: HCT8 (p53 WT/LIG4 WT); 25 μM and 50 μM, 48 hours
Text: as §2

[6] = test system: KM12C human colon cancer cell line; assay: Trypan blue staining apoptosis assay; assay type: cell-based; details: KM12C (p53 MT/LIG4 MT); 25 μM and 50 μM, 48 hours
Text: as §2

Compound | degree of apoptosis (trypan blue cell count) [1] | degree of apoptosis (trypan blue cell count) [2] | tumor size ([3]; 18 days) | tumor weight ([3]; 18 days) | degree of apoptosis (trypan blue cell count) [4] | degree of apoptosis (trypan blue cell count) [5] | degree of apoptosis (trypan blue cell count) [6] | tumor size ([3]; 15 days) | tumor weight ([3]; 15 days)
O=C(c1cc(Cc2n[nH]c(=O)c3ccccc23)ccc1F)N1CCN(C(=O)C2CC2)CC1 [olaparib, reference compound] | no apoptosis effect was shown; also recorded: no change in apoptosis | low apoptosis effect; also recorded: No apoptosis occurred | no change | no change | no apoptosis effect was shown | No apoptosis occurred | No apoptosis occurred |  | 
N#Cc1ccc(N2CCN(Cc3ccc4c5c(c(=O)[nH]c4c3)CCCN5)CC2)nc1 [Compound B, 6-{4-[(5-oxo-1,2,3,4,5,6-hexahydrobenzo[h][1,6]naphthyridin-8-yl)methyl]piperazin-1-yl}nicotinonitrile] | apoptosis effect is high by virtue of Compound B as compared to Compound A; also recorded: possible to observe the apoptosis | No apoptosis occurred |  |  | apoptosis effect is high by virtue of Compound B as compared to Compound A | No apoptosis occurred | No apoptosis occurred | no change | no change
CCOc1cc(CN(C)C)cc2[nH]c(=O)c3c(c12)NCCC3 [Compound A, 8-[(dimethylamino)methyl]-10-ethoxy-1,2,3,4-tetrahydrobenzo[h][1,6]naphthyridin-5(6H)-one] | apoptosis was induced; also recorded: possible to observe the apoptosis | low apoptosis effect; also recorded: No apoptosis occurred | no change | no change | apoptosis was induced | No apoptosis occurred | No apoptosis occurred |  | 
